Molecules are shown by their SMILES.

For series [1], the target named is T1, Q46 protein aggregates (Homo sapiens, UniProt P42858).
T1 construct: fused on or other part: An N-terminal GST tag, cleaved off with thrombin before the assay to trigger aggregation
The experiment in a line: Q46 Radioligand Binding Assay (RBA), displacement of [^3H3]MK-3328. As to conditions: 10 nM [^3H3]MK-3328, 5 μM Q46 protein aggregates. As to the method: For radioligand binding assays (RBA) GST-Q46 protein was generated based on a previous publication (Scherzinger et al. Cell, Vol. 90, 549-558, Aug. 8, 1997). For experiments 33 μM GST-Q46 was incubated with 150 μg/mL thrombin in assay buffer (150 mM NaCl, 50 mM Tris pH 8.0) and 2 mM CaCl2 for 16 hours at 37° C. Aggregated Q46 was pelleted by centrifugation for 5 minutes at 13,000 rpm in a bench top centrifuge and re-dissolved in the same volume of assay buffer. Test compounds were prepared by titration in DMSO at 11 concentrations from 33 μM to 1 nM. For the RBA, Q46 protein aggregates and test compounds were pre-incubated in assay buffer for 20 minutes at room temperature, in 140 μL/well in a 96-well plate (pp, round bottom). Then, ligand was added in 10 μL/well and incubated for 60 minutes at 37° C. Final assay concentrations were 1 μM to 30 pM test compound, 5 μM Q46 protein (equivalent monomer concentration) and 10 nM ligand [^3H3]MK-3328 (Harrision et al., ACS Med. Chem. Lett., 2 (2011), pp 498-502). Samples were transferred onto GF/B filter plates and washed 2× with 200 μL PBS using a Filtermate Harvester. After drying filter plates for 1 hour at 37° C., the back of the plates was sealed with foil and 30 μl/well scintillation fluid (Packard MicroScint 40) was added, incubated for incubated for 15 minutes in the dark and counted in a TopCount reader. For analysis, replicate data from independent assay plates were normalized towards 0% and 100% inhibition using control wells of vehicle (0% inhibition) and 3 μM unlabelled MK-3328 (100% inhibition). IC50 values were determined with a sigmoidal inhibition model with four variables (top, bottom, slope, IC50) in a global fit using the normalized replicate data.

The test system of series [2] is zQ175 knock-in mice (cortex, hippocampus, striatum, cerebellum). The experiment in a line: In vivo PET imaging in a knock-in model of Huntington's disease. Also noted: species or system mouse. To be noted: for % SUV: Mean ± SD. As to the method: ^11C-labeled Compound 1 of Method 1 was evaluated for its ability to penetrate the central nervous system of mice following systemic administration, and its binding to the cerebellum, striatum, hippocampus, and cortex was quantitated. Three groups of animals were compared: wild-type, and mice that were heterozygous or homozygous for the zQ175 knock-in allele. (Menalled L. B. et al. Comprehensive behavioral and molecular characterization of a new knock-in mouse model of Huntington's disease: zQ175. PloS One 2012, 7, e49838). Forty-eight nine months old animals (16 WT, 16 heterozygous and 16 homozygous zQ175) were obtained from The Jackson Laboratory, USA. The animals were housed at the animal department of Karolinska University Hospital in a temperature (±21° C.) and humidity (±40%) controlled environment on a 12 hour light/dark cycle (lights on 7:00 AM) with access to food and water ad libitum. Animals were allowed at least one week to habituate to the animal department before the start of the imaging sessions. All experiments were conducted during the light phase of the cycle.
Animals were anesthetized with inhalation of isoflurane (4-5% isoflurane in oxygen). After induction of anesthesia, the isoflurane concentration was lowered to 1.5-2% in 50/50 air/oxygen and the animals were positioned in the scanner in a designated mouse bed. A cannula was inserted in the tail vein through which the radioligand was administered. A 63-minute dynamic PET scan was initiated immediately upon intravenous injection of the radioligand. Upon completion of the imaging sessions, each animal was returned to its cage.
The acquired list mode data, was reconstructed into 25 timeframes (63 minute scan=4×10 s, 4×20 s, 4×60 s, 7×180 s, 6×360 s). The image reconstruction was made with a fully 3-dimensional maximum-likelihood expectation maximization algorithm (MLEM) with 20 iterations, without scatter and attenuation correction. The reconstructed dynamic PET images were co-registered to an inbuilt mouse MRI template available in PMOD, which also incorporates volumes of interest (VOI's) sets (PMOD Technologies Ltd., Zurich, Switzerland). With the help of these VOI sets, decay corrected time activity curves (TAC) were generated. The regional brain uptake values were expressed as percent standard uptake value (% SUV), which normalizes for injected radioactivity and body weight. In addition, the area under the curve (AUC) was calculated. The selected regions of interest (ROI) were: cortex, hippocampus, striatum and cerebellum.
The average % SUV and AUC values for the ^11C-labeled Compound 1 of Method 1 in the four brain regions, for the three groups of mice, are shown in Table 23. […] FIG. 3 presents the AUC values for the three groups of animals in the four regions of the brain.

T1 sequence (P42858 with tags, fused parts or gaps with the stated changes, form open): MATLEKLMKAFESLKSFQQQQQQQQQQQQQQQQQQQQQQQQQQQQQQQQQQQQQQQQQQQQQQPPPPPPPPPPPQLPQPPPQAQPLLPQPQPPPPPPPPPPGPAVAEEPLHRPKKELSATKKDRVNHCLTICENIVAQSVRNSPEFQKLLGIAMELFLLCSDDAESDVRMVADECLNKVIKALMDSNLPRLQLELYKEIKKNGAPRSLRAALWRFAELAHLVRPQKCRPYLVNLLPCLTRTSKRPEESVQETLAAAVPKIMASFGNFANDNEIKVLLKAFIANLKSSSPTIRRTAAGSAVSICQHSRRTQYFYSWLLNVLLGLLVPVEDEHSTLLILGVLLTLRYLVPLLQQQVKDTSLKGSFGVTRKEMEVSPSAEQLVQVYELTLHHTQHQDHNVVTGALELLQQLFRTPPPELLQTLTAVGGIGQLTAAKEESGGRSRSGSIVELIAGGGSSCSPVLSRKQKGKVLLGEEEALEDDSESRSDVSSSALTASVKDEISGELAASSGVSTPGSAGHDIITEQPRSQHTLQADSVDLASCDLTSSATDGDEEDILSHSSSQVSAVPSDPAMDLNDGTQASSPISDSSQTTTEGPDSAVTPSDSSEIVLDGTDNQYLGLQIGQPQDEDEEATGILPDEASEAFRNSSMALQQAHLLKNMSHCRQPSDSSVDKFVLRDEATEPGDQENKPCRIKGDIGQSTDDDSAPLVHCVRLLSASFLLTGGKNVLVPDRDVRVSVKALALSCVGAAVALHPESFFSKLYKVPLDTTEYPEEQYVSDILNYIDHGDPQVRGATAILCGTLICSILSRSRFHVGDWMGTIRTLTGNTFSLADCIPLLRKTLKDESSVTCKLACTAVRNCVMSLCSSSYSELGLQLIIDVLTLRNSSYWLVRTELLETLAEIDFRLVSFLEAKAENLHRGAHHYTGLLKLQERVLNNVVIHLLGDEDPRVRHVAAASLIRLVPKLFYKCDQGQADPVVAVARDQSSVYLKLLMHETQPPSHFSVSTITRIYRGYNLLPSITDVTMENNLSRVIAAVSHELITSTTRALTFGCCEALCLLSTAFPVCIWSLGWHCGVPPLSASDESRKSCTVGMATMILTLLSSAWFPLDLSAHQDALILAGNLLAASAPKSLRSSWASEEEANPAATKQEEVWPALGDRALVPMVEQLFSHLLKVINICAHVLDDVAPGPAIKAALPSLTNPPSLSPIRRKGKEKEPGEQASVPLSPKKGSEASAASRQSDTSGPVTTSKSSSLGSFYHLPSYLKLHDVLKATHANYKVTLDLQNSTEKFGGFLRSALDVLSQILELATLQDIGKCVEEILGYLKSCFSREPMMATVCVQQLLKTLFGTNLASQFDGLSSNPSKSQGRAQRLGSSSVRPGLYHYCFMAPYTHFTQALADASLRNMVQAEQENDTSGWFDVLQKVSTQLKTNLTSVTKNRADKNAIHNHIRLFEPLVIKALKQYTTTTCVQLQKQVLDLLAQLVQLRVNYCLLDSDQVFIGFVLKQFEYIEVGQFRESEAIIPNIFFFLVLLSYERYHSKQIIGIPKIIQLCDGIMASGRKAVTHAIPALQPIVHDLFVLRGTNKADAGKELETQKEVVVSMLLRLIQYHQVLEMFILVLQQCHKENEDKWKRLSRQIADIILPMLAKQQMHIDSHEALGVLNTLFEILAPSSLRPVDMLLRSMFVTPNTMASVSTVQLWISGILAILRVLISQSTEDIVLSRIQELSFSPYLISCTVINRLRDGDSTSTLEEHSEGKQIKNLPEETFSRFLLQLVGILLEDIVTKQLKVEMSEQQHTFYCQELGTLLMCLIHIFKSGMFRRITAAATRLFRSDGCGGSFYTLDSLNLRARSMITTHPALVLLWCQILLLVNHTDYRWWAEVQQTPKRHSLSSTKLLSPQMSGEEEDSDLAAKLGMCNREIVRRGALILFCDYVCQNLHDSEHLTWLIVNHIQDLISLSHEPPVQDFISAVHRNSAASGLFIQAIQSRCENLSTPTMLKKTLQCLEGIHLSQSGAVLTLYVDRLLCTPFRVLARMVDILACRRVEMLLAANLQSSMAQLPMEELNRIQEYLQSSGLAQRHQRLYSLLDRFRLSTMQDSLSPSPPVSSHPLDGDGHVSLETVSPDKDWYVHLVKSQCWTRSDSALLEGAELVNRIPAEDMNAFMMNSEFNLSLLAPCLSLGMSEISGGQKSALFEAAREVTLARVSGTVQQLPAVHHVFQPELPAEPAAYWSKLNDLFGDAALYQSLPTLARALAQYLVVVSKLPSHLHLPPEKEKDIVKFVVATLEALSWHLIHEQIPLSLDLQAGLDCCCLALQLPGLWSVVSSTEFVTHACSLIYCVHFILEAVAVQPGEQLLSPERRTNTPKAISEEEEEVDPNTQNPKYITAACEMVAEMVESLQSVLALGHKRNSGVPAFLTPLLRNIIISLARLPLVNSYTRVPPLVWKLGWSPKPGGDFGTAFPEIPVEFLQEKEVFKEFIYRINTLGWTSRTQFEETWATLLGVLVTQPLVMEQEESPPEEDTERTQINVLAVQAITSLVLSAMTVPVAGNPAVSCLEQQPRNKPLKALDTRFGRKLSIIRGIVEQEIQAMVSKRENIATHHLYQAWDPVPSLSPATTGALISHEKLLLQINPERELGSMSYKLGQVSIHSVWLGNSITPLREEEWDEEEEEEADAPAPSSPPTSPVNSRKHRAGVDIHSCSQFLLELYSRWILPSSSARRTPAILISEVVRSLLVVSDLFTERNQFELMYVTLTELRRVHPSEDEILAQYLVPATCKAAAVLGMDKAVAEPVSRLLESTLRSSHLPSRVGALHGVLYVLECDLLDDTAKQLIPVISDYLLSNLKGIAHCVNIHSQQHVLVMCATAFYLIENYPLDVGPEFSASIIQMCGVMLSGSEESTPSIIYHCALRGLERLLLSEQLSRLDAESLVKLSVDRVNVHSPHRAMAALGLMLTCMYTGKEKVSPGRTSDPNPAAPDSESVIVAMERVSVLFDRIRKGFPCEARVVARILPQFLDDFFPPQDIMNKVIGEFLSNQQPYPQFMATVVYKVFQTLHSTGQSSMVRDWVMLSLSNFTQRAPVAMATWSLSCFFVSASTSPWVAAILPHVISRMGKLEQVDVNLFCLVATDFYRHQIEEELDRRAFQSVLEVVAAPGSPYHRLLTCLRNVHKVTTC

Consider `COc1cc(NC(=O)c2ccn3c(n2)nc2ccccc23)cnc1OC` [N-(5,6-dimethoxypyridin-3-yl)-1,8,10-triazatricyclo[7.4.0.0^2,7]trideca-2(7),3,5,8,10,12-hexaene-11-carboxamide], for which the IC50 (usually the point on the concentration scale where inhibition reaches its midpoint) in series [1] was less than 100 nM.
The same measure, in the same setting: the result for `COc1cncc(NC(=O)c2ccn3c(n2)nc2ccccc23)c1` [N-(5-methoxypyridin-3-yl)-1,8,10-triazatricyclo[7.4.0.0^2,7]trideca-2(7),3,5,8,10,12-hexaene-11-carboxamide] reads less than 100 nM.
In turn, `COc1cncc(NC(=O)c2cn3c(n2)sc2ccccc23)c1` [N-(5-methoxypyridin-3-yl)-7-thia-2,5-diazatricyclo[6.4.0.0^2,6]dodeca-1(12),3,5,8,10-pentaene-4-carboxamide] showed a 50% inhibitory concentration (IC50) in series [1] of less than 100 nM.
Turning to `COc1cncc(NC(=O)c2cn3c(n2)sc2cc(-c4ccccc4)ccc23)c1` [N-(5-methoxypyridin-3-yl)-10-phenyl-7-thia-2,5-diazatricyclo[6.4.0.0^2,6]dodeca-1(12),3,5,8,10-pentaene-4-carboxamide], in series [1], the IC50 was less than 100 nM.
The same measure, in the same setting: in the case of `O=C(Nc1ccc(F)nc1)c1ccn2c(n1)nc1ccccc12` [N-(6-fluoropyridin-3-yl)-1,8,10-triazatricyclo[7.4.0.0^2,7]trideca-2(7),3,5,8,10,12-hexaene-11-carboxamide] it was less than 100 nM; in that of `COc1ccc2c(c1)sc1nc(C(=O)Nc3ccc(F)nc3)cn12` [N-(6-fluoropyridin-3-yl)-10-methoxy-7-thia-2,5-diazatricyclo[6.4.0.0^2,6]dodeca-1(12),3,5,8,10-pentaene-4-carboxamide], less than 100 nM; in that of `COc1ccc(NC(=O)c2ccn3c(n2)nc2ccccc23)cn1` [N-(6-methoxypyridin-3-yl)-1,8,10-triazatricyclo[7.4.0.0^2,7]trideca-2(7),3,5,8,10,12-hexaene-11-carboxamide], less than 100 nM.
`O=C(Nc1ccc(=O)[nH]n1)c1ccn2c(n1)nc1ccccc12` [N-(6-oxo-1,6-dihydropyridazin-3-yl)-1,8,10-triazatricyclo[7.4.0.0^2,7]trideca-2(7),3,5,8,10,12-hexaene-11-carboxamide] had a half-inhibitory concentration (IC50) in series [1] of less than 100 nM.
On the same count and under the same terms, in the case of `O=C(Nc1ccc(=O)[nH]c1)c1ccn2c(n1)nc1ccccc12` [N-(6-oxo-1,6-dihydropyridin-3-yl)-1,8,10-triazatricyclo[7.4.0.0^2,7]trideca-2(7),3,5,8,10,12-hexaene-11-carboxamide] it was less than 100 nM.
The same measure, in the same setting: the result for `O=C(Nc1cccnc1)c1ccn2c(n1)nc1ccccc12` [N-(pyridin-3-yl)-1,8,10-triazatricyclo[7.4.0.0^2,7]trideca-2(7),3,5,8,10,12-hexaene-11-carboxamide] reads greater than 500 nM; that for `COc1ccc2c(c1)sc1nc(CNc3cccnc3)cn12` [N-({10-methoxy-7-thia-2,5-diazatricyclo[6.4.0.0^2,6]dodeca-1(12),3,5,8,10-pentaen-4-yl}methyl)pyridin-3-amine], greater than 500 nM; that for `COc1ccc2c(c1)sc1nc(C(=O)NCCN(C)C)cn12` [N-[2-(dimethylamino)ethyl]-10-methoxy-7-thia-2,5-diazatricyclo[6.4.0.0^2,6]dodeca-1(12),3,5,8,10-pentaene-4-carboxamide], 100 to 500 nM.
Consider `COCCOc1cncc(NC(=O)c2ccn3c(n2)nc2ccccc23)c1` [N-[5-(2-methoxyethoxy)pyridin-3-yl]-1,8,10-triazatricyclo[7.4.0.0^2,7]trideca-2(7),3,5,8,10,12-hexaene-11-carboxamide], for which, in series [1], the IC50 is less than 100 nM.
On to `COc1ccc2c(c1)nc1nc(C(=O)Nc3ccc(-n4ccnc4)nc3)ccn12` [N-[6-(1H-imidazol-1-yl)pyridin-3-yl]-5-methoxy-1,8,10-triazatricyclo[7.4.0.0^2,7]trideca-2(7),3,5,8,10,12-hexaene-11-carboxamide], for which the half-maximal inhibitory concentration (IC50) in series [1] was less than 100 nM.
On to `COc1ccc2c(c1)sc1nc(C(=O)Nc3ccc(-n4ccnc4)nc3)cn12` [N-[6-(1H-imidazol-1-yl)pyridin-3-yl]-10-methoxy-7-thia-2,5-diazatricyclo[6.4.0.0^2,6]dodeca-1(12),3,5,8,10-pentaene-4-carboxamide], for which the 50% inhibitory concentration (IC50) in series [1] is less than 100 nM.
`COCCOc1ccc(NC(=O)c2ccn3c(n2)nc2ccccc23)cn1` [N-[6-(2-methoxyethoxy)pyridin-3-yl]-1,8,10-triazatricyclo[7.4.0.0^2,7]trideca-2(7),3,5,8,10,12-hexaene-11-carboxamide] yielded an IC50 in series [1] of less than 100 nM.
`CNC(=O)c1ccc(NC(=O)c2ccn3c(n2)nc2ccccc23)cn1` [N-[6-(methylcarbamoyl)pyridin-3-yl]-1,8,10-triazatricyclo[7.4.0.0^2,7]trideca-2(7),3,5,8,10,12-hexaene-11-carboxamide] registered a half-maximal inhibitory concentration (IC50) in series [1] of less than 100 nM.
With `[11CH3]Oc1ccc2c(c1)sc1nc(C(=O)Nc3cccnc3)cn12` [^11C-labeled Compound 1 of Method 1, 10-[^11C]-methoxy-N-(pyridin-3-yl)-7-thia-2,5-diazatricyclo[6.4.0.0^2,6]dodeca-1(12),3,5,8,10-pentaene-4-carboxamide], the “% SUV” value in series [2] (Cerebellum, WT mice (n = 7)) stood at 74.1 ± 7.1 % SUV; in series [2] (Cerebellum, het zQ175 mice (n = 6)), 80.5 ± 6.5 % SUV; in series [2] (Cerebellum, hom zQ175 mice (n = 8)) it was 92.3 ± 11.3 % SUV; in series [2] (Cortex, WT mice (n = 7)), 67.1 ± 5.7 % SUV; in series [2] (Cortex, het zQ175 mice (n = 6)), 73.4 ± 5.1 % SUV; in series [2] (Cortex, hom zQ175 mice (n = 8)) it was 93.1 ± 9.6 % SUV. The “% SUV” value in series [2] (Hippocampus, WT mice (n = 7)) is recorded as 73.3 ± 6.5 % SUV; in series [2] (Hippocampus, het zQ175 mice (n = 6)), 82.0 ± 6.3 % SUV; in series [2] (Hippocampus, hom zQ175 mice (n = 8)) it was 107.1 ± 10.8 % SUV; in series [2] (Striatum, WT mice (n = 7)) it was 71.9 ± 6.7 % SUV; in series [2] (Striatum, het zQ175 mice (n = 6)) it was 82.7 ± 7.0 % SUV; in series [2] (Striatum, hom zQ175 mice (n = 8)), 107.6 ± 9.6 % SUV. Moreover, the “binding of the radioligand relative to wild type” value in series [2] (all four brain regions, mice homozygous for the zQ175 allele) is “Increased binding of the radioligand, relative to wild type”.
